Assay results taken from ChEMBL document CHEMBL1201862, “PubChem BioAssay data set” (2004).
Blank lines part the entries; values can stand above or below the compound they belong to. Active and inactive are the calls of the source.

What was measured:
CAAX prenyl protease 2 [1] = molecular target: CAAX prenyl protease 2 (Homo sapiens, UniProt Q9Y256); assay: human Rce1 protease inhibitors, dose response, biochemical, plate reader, dry powder samples (AID 588848)
CAAX prenyl protease 2 [2] = molecular target: T1, CAAX prenyl protease 2 (Saccharomyces cerevisiae S288c, UniProt Q03530); assay: yeast Rce1 CaaX protease inhibitors, dose response, biochemical, plate reader, dry powder retest (AID 588851)
T1 sequence (Q03530 whole entry): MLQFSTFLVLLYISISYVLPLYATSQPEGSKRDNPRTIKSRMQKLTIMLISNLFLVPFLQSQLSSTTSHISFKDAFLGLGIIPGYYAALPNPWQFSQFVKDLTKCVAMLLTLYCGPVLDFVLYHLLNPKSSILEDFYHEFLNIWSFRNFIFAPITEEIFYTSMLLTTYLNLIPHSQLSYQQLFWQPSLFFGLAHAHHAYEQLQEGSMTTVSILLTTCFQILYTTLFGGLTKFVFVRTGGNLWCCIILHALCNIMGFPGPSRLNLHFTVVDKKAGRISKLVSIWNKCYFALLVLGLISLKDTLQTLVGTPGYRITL

Cysteine protease ATG4B = Cysteine protease ATG4B (Homo sapiens, UniProt Q9Y4P1); format: functional;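 note: Fluorescence-based dose-response confirmation assay measuring inhibition of ATG4B activity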
Chain of Cysteine protease ATG4B (Q9Y4P1 whole entry): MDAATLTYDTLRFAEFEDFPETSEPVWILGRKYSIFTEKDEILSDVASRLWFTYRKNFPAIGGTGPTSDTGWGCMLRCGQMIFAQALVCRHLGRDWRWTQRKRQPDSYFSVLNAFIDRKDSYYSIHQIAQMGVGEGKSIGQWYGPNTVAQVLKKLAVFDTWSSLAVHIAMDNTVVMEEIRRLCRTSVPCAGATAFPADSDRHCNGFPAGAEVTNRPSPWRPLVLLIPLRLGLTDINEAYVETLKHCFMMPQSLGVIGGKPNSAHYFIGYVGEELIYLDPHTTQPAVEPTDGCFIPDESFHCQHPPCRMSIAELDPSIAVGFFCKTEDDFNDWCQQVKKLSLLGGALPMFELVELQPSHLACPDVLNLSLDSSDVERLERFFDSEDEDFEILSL

Phospholipase A2 = Phospholipase A2 (Homo sapiens, UniProt P04054); format: functional;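 note: confirmatory dose-response counterscreen on phospholipase A2, testing hits that came from an ultra-high-throughput screen for ATG4B inhibitors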
Chain of Phospholipase A2 (P04054 whole entry): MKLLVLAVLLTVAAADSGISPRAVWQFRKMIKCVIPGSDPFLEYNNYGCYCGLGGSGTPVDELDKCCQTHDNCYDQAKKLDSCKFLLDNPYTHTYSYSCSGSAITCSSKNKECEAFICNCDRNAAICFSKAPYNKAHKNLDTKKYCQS

Candida albicans = assay: growth inhibition of azole-resistant C. albicans, dose response, CaCi-8 strain, Alamar Blue, dry powder, set 2 (AID 488909); format: functional, organism-based
NIH3T3 = assay: mammalian cell toxicity in NIH-3T3 fibroblasts, dose response, cytotoxicity control for antifungal resistance reversal project, Alamar Blue, dry powder, set 2 (AID 488911); format: functional, cell-based; conditions: Mus musculus
[3] = molecular target: T2, Sentrin-specific protease 8 (Homo sapiens, UniProt Q96LD8); assay: SENP8 protease inhibitors, SAR follow-up, biochemical, luminescence (AID 504501); format: functional
T2 sequence (Q96LD8 whole entry): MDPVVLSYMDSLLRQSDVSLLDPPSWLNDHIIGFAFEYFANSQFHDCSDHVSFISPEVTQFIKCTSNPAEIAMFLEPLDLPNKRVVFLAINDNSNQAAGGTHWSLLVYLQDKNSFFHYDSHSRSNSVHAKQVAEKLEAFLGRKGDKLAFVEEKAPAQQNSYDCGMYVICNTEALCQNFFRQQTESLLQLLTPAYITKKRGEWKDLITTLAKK

[4] = molecular target: T3, Sentrin-specific protease 6 (Homo sapiens, UniProt Q9GZR1); assay: SAR Analysis of small molecule inhibitors of Sentrin-specific protease 6 (SENP6) using a Luminescent assay. [Related pubchem assays (depositor defined):AID2582, AID2599]; format: functional
T3 sequence (Q9GZR1 whole entry): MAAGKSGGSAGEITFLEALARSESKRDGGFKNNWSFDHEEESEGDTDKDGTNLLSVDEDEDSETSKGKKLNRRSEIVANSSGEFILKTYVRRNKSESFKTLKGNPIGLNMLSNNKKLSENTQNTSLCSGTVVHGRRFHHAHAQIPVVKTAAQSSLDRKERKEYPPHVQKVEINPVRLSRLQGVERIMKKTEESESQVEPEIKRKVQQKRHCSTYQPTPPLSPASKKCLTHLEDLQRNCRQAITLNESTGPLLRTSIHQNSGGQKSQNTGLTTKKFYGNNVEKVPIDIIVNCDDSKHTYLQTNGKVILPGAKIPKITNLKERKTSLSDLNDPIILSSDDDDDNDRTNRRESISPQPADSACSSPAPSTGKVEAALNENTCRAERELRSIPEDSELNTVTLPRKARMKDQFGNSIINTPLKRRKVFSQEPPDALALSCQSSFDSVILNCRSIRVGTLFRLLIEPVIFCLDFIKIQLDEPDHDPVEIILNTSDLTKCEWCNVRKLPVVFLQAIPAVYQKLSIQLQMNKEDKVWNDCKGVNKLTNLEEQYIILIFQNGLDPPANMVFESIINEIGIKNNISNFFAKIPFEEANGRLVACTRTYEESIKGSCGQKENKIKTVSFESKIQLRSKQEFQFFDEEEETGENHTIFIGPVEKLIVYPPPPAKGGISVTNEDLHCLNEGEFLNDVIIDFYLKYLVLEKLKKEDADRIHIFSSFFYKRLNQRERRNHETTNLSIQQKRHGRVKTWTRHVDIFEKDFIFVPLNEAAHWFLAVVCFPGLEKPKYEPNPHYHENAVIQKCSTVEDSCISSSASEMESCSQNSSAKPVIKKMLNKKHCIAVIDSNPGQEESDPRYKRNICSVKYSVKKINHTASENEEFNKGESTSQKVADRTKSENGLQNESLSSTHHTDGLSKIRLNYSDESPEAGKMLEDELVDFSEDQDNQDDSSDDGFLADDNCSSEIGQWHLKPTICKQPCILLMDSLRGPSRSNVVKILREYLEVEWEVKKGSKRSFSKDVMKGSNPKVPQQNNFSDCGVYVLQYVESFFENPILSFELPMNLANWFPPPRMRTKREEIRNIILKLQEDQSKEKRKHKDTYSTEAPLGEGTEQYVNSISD

Caspase-3 [5] = molecular target: T4, Caspase-3 (Homo sapiens, UniProt P42574); assay: SAR Analysis of small molecule inhibitors of Sentrin-specific proteases (SENPs) using a Caspase-3 Selectivity assay. [Related pubchem assays (depositor defined):AID2540, AID2599, AID434973, AID489001]; format: functional
T4 sequence (P42574 whole entry): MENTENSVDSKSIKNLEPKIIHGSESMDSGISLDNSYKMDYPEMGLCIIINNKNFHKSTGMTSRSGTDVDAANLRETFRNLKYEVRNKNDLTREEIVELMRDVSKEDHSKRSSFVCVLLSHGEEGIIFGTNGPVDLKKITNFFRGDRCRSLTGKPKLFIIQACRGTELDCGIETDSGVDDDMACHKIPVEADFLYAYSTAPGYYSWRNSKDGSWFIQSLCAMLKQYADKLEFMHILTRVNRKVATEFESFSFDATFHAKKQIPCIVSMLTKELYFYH

[6] = molecular target: T5, Sentrin-specific protease 7 (Homo sapiens, UniProt Q9BQF6); assay: SENP7 protease inhibitors, SAR follow-up, biochemical, luminescence (AID 504497); format: functional
T5 sequence (Q9BQF6 whole entry): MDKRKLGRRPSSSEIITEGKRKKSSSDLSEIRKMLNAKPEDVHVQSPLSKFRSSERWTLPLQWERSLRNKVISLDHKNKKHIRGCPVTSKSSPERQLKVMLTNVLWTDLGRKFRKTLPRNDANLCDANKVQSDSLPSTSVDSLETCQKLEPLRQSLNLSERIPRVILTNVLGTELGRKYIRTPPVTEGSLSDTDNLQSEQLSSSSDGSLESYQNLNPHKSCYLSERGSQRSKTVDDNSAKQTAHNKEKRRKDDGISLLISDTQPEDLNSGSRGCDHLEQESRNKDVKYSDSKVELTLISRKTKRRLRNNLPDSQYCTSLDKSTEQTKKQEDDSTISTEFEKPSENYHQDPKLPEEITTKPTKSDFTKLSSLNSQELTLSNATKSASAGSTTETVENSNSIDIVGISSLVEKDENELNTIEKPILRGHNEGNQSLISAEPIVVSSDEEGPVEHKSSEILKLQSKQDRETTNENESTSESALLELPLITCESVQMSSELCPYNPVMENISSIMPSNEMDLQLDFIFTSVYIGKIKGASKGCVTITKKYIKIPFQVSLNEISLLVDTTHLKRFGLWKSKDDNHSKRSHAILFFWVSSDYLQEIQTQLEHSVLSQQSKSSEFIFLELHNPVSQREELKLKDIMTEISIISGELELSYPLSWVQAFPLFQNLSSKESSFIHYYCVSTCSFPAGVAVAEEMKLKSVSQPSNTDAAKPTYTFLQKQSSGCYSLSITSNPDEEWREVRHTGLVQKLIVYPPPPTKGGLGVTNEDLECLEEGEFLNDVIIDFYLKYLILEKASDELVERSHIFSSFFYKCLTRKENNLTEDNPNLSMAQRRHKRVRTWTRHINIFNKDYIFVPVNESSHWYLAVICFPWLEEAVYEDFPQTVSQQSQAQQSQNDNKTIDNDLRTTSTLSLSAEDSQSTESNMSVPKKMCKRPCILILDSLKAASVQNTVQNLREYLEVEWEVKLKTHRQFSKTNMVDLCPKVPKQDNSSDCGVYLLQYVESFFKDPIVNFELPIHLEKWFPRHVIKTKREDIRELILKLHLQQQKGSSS

[7] = molecular target: T2, Sentrin-specific protease 8; assay: SENP8 protease inhibitors, SAR follow-up, biochemical, luminescence, set 2 (AID 588601); format: functional
Caspase-3 [8] = molecular target: T4, Caspase-3; assay: caspase-3 inhibitors as off-family protease, SAR follow-up, selectivity assay for SENP protease inhibitor project, biochemical, luminescence, set 2 (AID 588599); format: functional
[9] = molecular target: T5, Sentrin-specific protease 7; assay: SENP7 protease inhibitors, SAR follow-up, biochemical, luminescence, set 2 (AID 588600); format: functional
[10] = molecular target: T3, Sentrin-specific protease 6; assay: SENP6 protease inhibitors, SAR follow-up, biochemical, luminescence, set 2 (AID 588598); format: functional
[11] = Shn3 3'UTR reporter inhibitors, dose response, cell-based, Clone20 osteoblasts, firefly luciferase, cherry-picked (AID 624132); format: functional;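 note: firefly luciferase luminescence from reporter carrying the Shn3 3'UTR in osteoblasts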
[12] = molecular target: ATP-dependent molecular chaperone HSP82 (Candida albicans (strain WO-1) (Yeast), UniProt C4YTQ8); assay: loss of DOC-induced GRE-beta-galactosidase reporter signal, dose response, Hsp90 inhibitor project, S. cerevisiae, luminescence (AID 2400); format: functional, cell-based;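 note: beta-galactosidase luminescence from glucocorticoid response element reporter as proxy for Hsp90 function; inhibitor potency where signal loss means Hsp90 inhibition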
Chain of ATP-dependent molecular chaperone HSP82 (C4YTQ8 whole entry): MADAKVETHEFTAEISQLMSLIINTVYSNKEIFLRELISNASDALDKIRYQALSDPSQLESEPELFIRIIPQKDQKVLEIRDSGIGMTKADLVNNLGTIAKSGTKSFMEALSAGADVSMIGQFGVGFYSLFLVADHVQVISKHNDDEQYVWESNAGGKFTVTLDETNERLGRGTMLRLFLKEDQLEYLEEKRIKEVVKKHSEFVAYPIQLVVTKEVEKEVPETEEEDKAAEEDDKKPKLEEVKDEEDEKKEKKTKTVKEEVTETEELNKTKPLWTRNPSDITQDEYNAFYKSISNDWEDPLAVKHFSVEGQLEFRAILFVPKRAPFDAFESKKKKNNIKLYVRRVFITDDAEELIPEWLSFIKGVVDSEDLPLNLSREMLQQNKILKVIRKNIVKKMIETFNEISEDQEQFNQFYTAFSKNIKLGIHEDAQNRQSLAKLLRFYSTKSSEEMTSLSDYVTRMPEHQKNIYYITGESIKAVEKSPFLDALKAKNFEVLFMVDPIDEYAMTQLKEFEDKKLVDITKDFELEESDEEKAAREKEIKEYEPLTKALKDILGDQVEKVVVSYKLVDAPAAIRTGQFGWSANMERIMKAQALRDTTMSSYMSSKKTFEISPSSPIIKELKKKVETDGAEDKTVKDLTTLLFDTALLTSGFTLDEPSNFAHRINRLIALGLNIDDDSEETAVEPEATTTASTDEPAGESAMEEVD

Jurkat = assay: SAR Analysis of small molecule inhibitors of T-cell specific antigen receptor-induced NF-kB activation in a Jurkat cell line using a luminescence assay - Set 2. [Related pubchem assays (depositor defined):AID435003, AID435012, AID465]; format: functional, cell-based; conditions: Homo sapiens
Streptococcus = assay: Group A Streptococcus viability loss, dose response, counter-screen for streptokinase expression inhibitor project, luminescence, BacTiterGlo (AID 1915); format: functional, organism-based;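 note: potency for reduction of bacterial viability or growth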
[13] = HepG2 cell cytotoxicity, dose response, cytotoxicity control for Shn3 inhibitor project, CellTiter-Glo, cherry-picked (AID 624134); format: functional, cell-based
cells [14] = format: functional, cell-based
[15] = control 3'UTR Renilla luciferase suppression, dose response, counter-screen for Shn3 inhibitor project, cell-based, Clone20-Shn3RL, cherry-picked (AID 624133); format: functional
[16] = cytotoxicity toward NIH3T3 fibroblasts, dose response, counter-screen, cell-based, ATP luminescence, mouse fibroblasts (AID 2010); format: functional;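 note: cells exposed to compound for about 90 hours before reading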
HEK293 [17] = assay: inhibitors of LMP1-driven NF-kB reporter, dose response, cell-based, HEK293, luciferase, cherry-pick (AID 588343); format: functional; conditions: Homo sapiens
[18] = NIH-3T3 fibroblast cytotoxicity, dose response, cytotoxicity control, cell-based, fluorescence, Alamar Blue, secondary assay (AID 2327); format: functional;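 note: NIH-3T3 mouse fibroblasts cultured with fluconazole at 8 µg/mL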
INS1 = assay: beta cell apoptosis inhibitors, cytokine rescue, dose response, luminescence, retest (AID 449756); format: functional, cell-based; conditions: Rattus norvegicus;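 note: cell death triggered by IL-1 beta plus TNF-alpha plus IFN-gamma mixture; protective hits raise ATP signal compared with cytokine alone wells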
HEK293 [19] = assay: cytotoxicity in HEK293T NF-kB-Luc cells, SAR follow-up, cytotoxicity control for NF-kB activator project, cell-based, resazurin fluorescence (AID 493251); format: functional; conditions: Homo sapiens
[20] = molecular target: Serine/threonine-protein phosphatase (Candida dubliniensis (strain CD36 / CBS 7987 / NCPF 3949 / NRRLY-17841) (Yeast), UniProt B9W6M3); assay: calcineurin pathway inhibitors in yeast reporter, dose response, S. cerevisiae, CDRE-lacZ, luminescence, secondary (AID 2388); format: functional, cell-based;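 note: yeast reporter cells carrying a calcineurin-responsive lacZ construct stimulated with calcium chloride; luminescent beta-galactosidase reporter signal in whole cells rather than isolated phosphatase activity; potency for inhibition where a drop in reporter signal means calcineurin blockade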
Chain of Serine/threonine-protein phosphatase (B9W6M3 whole entry): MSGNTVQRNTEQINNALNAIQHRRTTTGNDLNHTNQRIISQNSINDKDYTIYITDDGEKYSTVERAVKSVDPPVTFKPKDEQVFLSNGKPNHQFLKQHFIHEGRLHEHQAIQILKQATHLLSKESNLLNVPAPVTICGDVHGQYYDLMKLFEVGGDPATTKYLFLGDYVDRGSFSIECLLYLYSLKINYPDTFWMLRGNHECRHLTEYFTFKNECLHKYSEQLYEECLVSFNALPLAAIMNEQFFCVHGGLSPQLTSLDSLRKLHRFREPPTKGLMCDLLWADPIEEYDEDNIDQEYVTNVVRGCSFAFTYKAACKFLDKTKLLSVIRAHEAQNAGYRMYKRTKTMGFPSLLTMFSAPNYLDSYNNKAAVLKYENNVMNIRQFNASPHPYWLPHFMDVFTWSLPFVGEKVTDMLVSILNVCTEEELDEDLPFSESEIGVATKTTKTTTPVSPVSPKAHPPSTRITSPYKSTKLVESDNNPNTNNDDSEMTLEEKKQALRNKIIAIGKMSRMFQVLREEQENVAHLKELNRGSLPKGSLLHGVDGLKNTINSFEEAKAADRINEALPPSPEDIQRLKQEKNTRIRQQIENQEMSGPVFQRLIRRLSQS

[21] = C. albicans growth with fluconazole, confirmation, fluorescence, retest (AID 2467); format: functional, cell-based
cells [22] = format: functional, cell-based; remark: listed apart in the source
[23] = test system: Streptococcus sp. 'group A'; assay: growth inhibition of control SK(-) GAS strain, dose response, counter-screen for streptokinase expression inhibitor project, luminescence, kanamycin, BacTiterGlo, confirmation (AID 1900); format: functional, organism-based
HEK293 [24] = assay: SAR Analysis of small molecule inhibitors of T-cell specific antigen receptor-induced NF-kB activation in a HEK-293T cell line using a luminescence assay - Set 2. [Related pubchem assays (depositor defined):AID435003, AID435012, AID489026]; format: functional, cell-based; conditions: Homo sapiens
[25] = inhibitors of intracellular T. cruzi replication, confirmation, NIH3T3 host cells, beta-gal luminescence (AID 2044); format: functional, cell-based;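 note: intracellular parasites grown in NIH/3T3 mouse fibroblasts as host cells; luminescent beta-galactosidase reporter signal from transgenic T. cruzi replicating inside host cells; inhibitors lower the luminescence signal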
[26] = cytotoxicity in HEK-293T cells, dose response, cytotoxicity control for TCR NF-kB inhibitor project, luminescence, T-cell screen hits (AID 489026); format: functional, cell-based;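 note: cells exposed to compound about 14 hours before the viability readout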

Chain of CAAX prenyl protease 2 (Homo sapiens, UniProt Q9Y256) (Q9Y256 whole entry): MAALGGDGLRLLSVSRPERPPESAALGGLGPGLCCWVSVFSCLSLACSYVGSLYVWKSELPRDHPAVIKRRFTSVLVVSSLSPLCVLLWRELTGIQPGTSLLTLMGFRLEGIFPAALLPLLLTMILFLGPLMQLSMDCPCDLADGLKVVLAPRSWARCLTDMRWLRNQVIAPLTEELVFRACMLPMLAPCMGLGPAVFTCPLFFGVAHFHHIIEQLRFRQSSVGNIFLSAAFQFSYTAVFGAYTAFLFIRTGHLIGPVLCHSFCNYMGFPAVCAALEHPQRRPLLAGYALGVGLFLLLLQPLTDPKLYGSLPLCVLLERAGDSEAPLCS

AC50 (CAAX prenyl protease 2 [1]): 49.5 µM (active)
AC50 (CAAX prenyl protease 2 [2]): 33.6 µM (active)
SMILES: CN(C)CCCN(C(=O)c1cc(-c2cccs2)nc2ccccc12)c1nc2ccc(F)cc2s1

IC50 (Cysteine protease ATG4B): 11.8 µM (active)
IC50 (Phospholipase A2): 7.22 µM (active)
SMILES: O=C(c1ccc(OC2CCN(C/C=C/c3ccc(F)cc3)CC2)cc1)N1CCCC1

SMILES: COc1ccnc(N2CCN(C(=O)c3ccc(Cl)cc3)CC2)c1
AC50 (Candida albicans): 30.4 µM (active)
AC50 (NIH3T3): 96.1 µM (active)

IC50 [4]: > 99 µM (inactive)
IC50 (Caspase-3 [5]): 23.7 µM (active)
IC50 [6]: 2.66 µM (active)
SMILES: CC(C)C(=O)Nc1ccc(-c2nc3cc(Cl)ccc3o2)cc1
IC50 [3]: > 99 µM (inactive)

IC50 (Caspase-3 [8]): 50.7 µM (active)
IC50 [9]: 88.8 µM (active)
IC50 [10]: 94.5 µM (active)
SMILES: O=C(NCC[S+]([O-])c1c(-c2ccc(F)cc2)[nH]c2ccccc12)C(=O)c1c[nH]c2ccccc12 (stereo not drawn)
IC50 [7]: 84 µM (active)

SMILES: CCCCC(=O)NC(c1ccc(Cl)cc1Cl)c1ccc2cccnc2c1O (stereo not drawn)
AC50 [11]: 0.67 µM (active)
EC50 [12]: > 150 µM (inactive)
IC50 (Jurkat): 3.7 µM (active)
EC50 (Streptococcus): 2.12 µM (active)
AC50 [13]: > 70 µM (inactive)
EC50 (cells [14]): > 350 µM (not active)
AC50 [15]: 0.861 µM (active)
EC50 [16]: 0.57 µM (active)
AC50 (HEK293 [17]): 4.57 µM (active)
EC50 [18]: 13.3 µM (active)
AC50 (INS1): 0.422 µM (active)
IC50 (HEK293 [19]): 26.8 µM (inactive)
EC50 [20]: > 180 µM (inactive)
EC50 [21]: 0.698 µM (active)
EC50 (cells [22]): 8.53 µM (active)
EC50 [23]: 1.29 µM (active)
IC50 (HEK293 [24]): 3.23 µM (active)
EC50 [25]: 0.126 µM (active)
IC50 [26]: > 80 µM (inactive)
